Earlier results in patent US9636287B2, “Primecoat compositions for proteinaceous substrates and methods of priming proteinaceous substrates therewith” (Mad River Science, priority 2012, dated 2017).

Test system: EpiDerm Skin Model (normal, human-derived epidermal keratinocytes, NHEK)
Settings: MatTek Corporation general guideline groupings, example materials

CCCCCCCCCCCCOS(=O)(=O)[O-].[Na+] [1% Sodium Dodecyl Sulfate, Sodium Dodecyl Sulfate]
ET-50 (hrs): 0.5-4^ hrs
Expected In vivo Irritancy: Moderate

O=[N+]([O-])O [Conc. Nitric Acid, Nitric Acid]
ET-50: <0.5 h
Expected In vivo Irritancy: Severe, probably corrosive

Triton X-100 [1% Triton X-100]
ET-50: 4 to 12 h
Expected In vivo Irritancy: Moderate to Mild
